Reference: patent US8304422B2, “Compositions and methods for inhibition of the JAK pathway” (Rigel Pharmaceuticals, Inc., priority 2007, dated 2012)

Test system: Ramos B-Cell Line Stimulated with IL-4
Test: Assay for Ramos B-Cell Line Stimulated with IL-4 (CD23 upregulation, FACS; Example 2)
Assay type: cell-based
Conditions: human Ramos B cells, IL-4 50 units/mL for 20-24 hours, anti-CD23-PE
Description: One means of assaying for such inhibition is detection of the effect of the 2,4-pyrimidinediamine compounds on the upregulation of downstream gene products. In the Ramos/IL4 assay, B-cells are stimulated with the cytokine Interleukin-4 (IL-4) leading to the activation of the JAK/Stat pathway through phosphorylation of the JAK family kinases, JAK1 and JAK3, which in turn phosphorylate and activate the transcription factor Stat-6. […] To study the effect of inhibitors (e.g., the 2,4-substituted pyrimindinediamine compounds described herein) on the JAK1 and JAK3 kinases, human Ramos B cells are stimulated with human IL-4. 20 to 24 hours post stimulation, cells are stained for upregulation of CD23 and analyzed using flow cytometry (FACS). […] An exemplary assay of this type is described in greater detail in Example 2.
B-cells stimulated with cytokine Interleukin-4 (IL-4) activate the JAK/Stat pathway through phosphorylation of the JAK family kinases, JAK-1 and JAK-3, which in turn phosphorylate and activate the transcription factor Stat-6. […] To study the effect of inhibitors on the JAK family kinases, human Ramos B cells are stimulated with human IL-4.
The Ramos B-cell line was acquired from ATCC (ATCC Catalog No. CRL-1596). The cells were cultured in RPMI 1640 (Cellgro, MediaTech, Inc., Herndon, Va., Cat No. 10-040-CM) with 10% fetal bovine serum (FBS), heat inactivated (JRH Biosciences, Inc, Lenexa, Kans., Cat No. 12106-500M) according to ATCC propagation protocol. Cells were maintained at a density of 3.5×10^5. The day before the experiment, Ramos B-cells were diluted to 3.5×10^5 cells/mL to ensure that they were in a logarithmic growth phase.
Cells were spun down and suspended in RPMI with 5% serum. 5×10^4 cells were used per point in a 96-well tissue culture plate. Cells were pre-incubated with compound or DMSO (Sigma-Aldrich, St. Louis, Mo., Cat No. D2650) vehicle control for 1 hour in a 37° C. incubator.
Cells were then stimulated with IL-4 (Peprotech Inc., Rocky Hill, N.J., Cat No. 200-04) for a final concentration of 50 units/mL for 20-24 hours. Cells were then spun down and stained with anti-CD23-PE (BD Pharmingen, San Diego, Calif., Cat No. 555711) and analyzed by FACS. Detection was performed using a BD LSR I System Flow Cytometer, purchased from Becton Dickinson Biosciences of San Jose, Calif.

SMILES | IC50
C#CCNS(=O)(=O)c1ccc(Nc2nc(Nc3cc(C)c(OC)c(C)c3)ncc2F)cc1 [I-5, N2-(3,5-Dimethyl-4-methoxyphenyl)-5-fluoro-N4-[4-(prop-2-ynylaminosulfonyl)phenyl]-2,4-pyrimidinediamine] | 31.6 nM
NS(=O)(=O)c1cccc(Nc2nc(Nc3ccc(OCc4ccccn4)cc3)ncc2C(F)(F)F)c1 [I-12, N4-(3-Aminosulfonylphenyl)-N2-[4-(2-pyridinyl)methyleneoxyphenyl]-5-trifluoromethyl-2,4-pyrimidinediamine] | 1110 nM
CNC(=O)COc1cccc(Nc2ncc(N)c(Nc3ccc(S(N)(=O)=O)cc3)n2)c1 [I-6, 5-Amino-N4-(4-aminosulfonylphenyl)-N2-[3-(N-methylamino)carbonylmethyleneoxyphenyl]-2,4-pyrimidinediamine] | 8800 nM
O=S(=O)(NC1CC1)c1ccc(Nc2nc(Nc3ccc(OCc4cccnc4)cc3)ncc2C(F)(F)F)cc1 [I-13, N4-[4-N—(Cyclopropyl)aminosulfonylphenyl]-N2-[4-(3-pyridinyl)methyleneoxyphenyl]-5-trifluoromethyl-2,4-pyrimidinediamine] | 549 nM
O=S(=O)(NCc1ccc(Nc2nc(Nc3ccc(F)c(F)c3)ncc2F)cc1)C1CC1 [II-2, N4-(4-cyclopropylsulfonylaminomethyl)phenyl-N2-(3,4-difluoro)phenyl-5-fluoro-2,4-pyrimidinediamine] | 614 nM
Cc1cnc(Nc2cccc(C(N)=O)c2)nc1Nc1ccc(CNS(=O)(=O)C2CC2)c(Cl)c1 [II-18, N2-(3-aminocarbonyl)phenyl-N4-(3-chloro-4-cyclopropylsulfonylaminomethyl)phenyl-5-methyl-2,4-pyrimidinediamine] | 279 nM
Cc1cnc(Nc2ccc3[nH]c(C(C)(C)C)nc3c2)nc1Nc1ccc(CNS(=O)(=O)C2CC2)cc1 [IV-4, N2-(2-tert-butylbenzoimidazol-5-yl)-N4-(4-cyclopropylsulfonylaminomethyl)phenyl-5-methyl-2,4-pyrimidinediamine] | 127 nM
COc1ccc(Nc2ncc(F)c(Nc3ccc(CNS(=O)(=O)C4CC4)cc3)n2)cc1Cl [II-3, N2-(3-chloro-4-methoxy)phenyl-N4-(4-cyclopropylsulfonylaminomethyl)phenyl-5-fluoro-2,4-pyrimidinediamine] | 116 nM
Cc1cnc(Nc2ccc3[nH]c(C(F)(F)F)nc3c2)nc1Nc1ccc(CNS(=O)(=O)C2CC2)cc1 [IV-2, N4-(4-cyclopropylsulfonylaminomethyl)phenyl-5-methyl-N2-(2-trifluoromethylbenzoimidazol-5-yl)-2,4-pyrimidinediamine] | 44 nM
CS(=O)(=O)N1CCc2cc(Nc3nc(Nc4ccc5nc(C(F)(F)F)[nH]c5c4)ncc3F)ccc21 [VIII-4, 5-Fluoro-N4-[(1-methylsulfonyl)indolin-5-yl]-N2-(2-trifluoromethylbenzimidazol-5-yl)-2,4-pyrimidinediamine] | 242 nM
Cc1cnc(Nc2ccc3[nH]c(CN4CCOCC4)nc3c2)nc1Nc1ccc(CNS(=O)(=O)C2CC2)cc1 [IV-6, N4-(4-cyclopropylsulfonylaminomethyl)phenyl-5-methyl-N2-[2-(morpholin-4-yl)methylbenzoimidazol-5-yl]-2,4-pyrimidinediamine] | 207 nM
Cc1cnc(Nc2ccc3c(c2)nc(C)n3C)nc1Nc1ccc2c(c1)C(NS(C)(=O)=O)CC2 (racemic) [VIII-3, (+/−)-N2-(1,2-Dimethylbenzimidazol-5-yl)-N4-[1-(methylsulfonylamino)indan-6-yl]-5-methyl-2,4-pyrimidinediamine] | 717 nM
C#CCOc1ccc(Nc2ncc(C)c(Nc3ccc(C)c(S(N)(=O)=O)c3)n2)cc1 [I-2, N4-(3-Aminosulfonyl-4-methylphenyl)-5-methyl-N2-[4-(prop-2-ynyloxy)phenyl]-2,4-pyrimidinediamine] | 181 nM
COc1cccc(N(C)c2ncc(N)c(Nc3cccc(S(N)(=O)=O)c3)n2)c1 [I-10, 5-Amino-N4-(3-aminosulfonylphenyl)-N2-(3-methoxyphenyl)-N2-methyl-2,4-pyrimidinediamine] | 64200 nM
Cc1nc2ccc(Nc3ncc(F)c(Nc4ccc5c(c4)CCN5S(C)(=O)=O)n3)cc2[nH]1 [VIII-6, 5-Fluoro-N4-[(1-methylsulfonyl)indolin-5-yl]-N2-(2-methylbenzimidazol-5-yl)-2,4-pyrimidinediamine] | 349 nM
Cc1cnc(Nc2cccc(C(N)=O)c2)nc1Nc1ccc(CN(C)S(=O)(=O)C2CC2)cc1 [II-20, N2-(3-aminocarbonyl)phenyl-N4-[4-(N-cyclopropylsulfonyl-N-methyl)aminomethyl]phenyl-5-methyl-2,4-pyrimidinediamine] | 505 nM
CNC(=O)COc1cccc(Nc2ncc(N)c(Nc3cccc(S(N)(=O)=O)c3)n2)c1 [I-7, 5-Amino-N4-(3-aminosulfonylphenyl)-N2-[3-(N-methylamino)carbonylmethyleneoxyphenyl]-2,4-pyrimidinediamine] | 5820 nM
C#CCNS(=O)(=O)c1cccc(Nc2nc(Nc3cc(OC)c(OC)c(OC)c3)ncc2F)c1 [I-1, 5-Fluoro-N4-[3-(prop-2-ynylaminosulfonyl)phenyl]-N2-(3,4,5-trimethoxyphenyl)-2,4-pyrimidinediamine] | 140 nM
COc1ccc(N(C)c2ncc(N)c(Nc3ccc(S(N)(=O)=O)cc3)n2)cc1 [I-9, 5-Amino-N4-(4-aminosulfonylphenyl)-N2-(4-methoxyphenyl)-N2-methyl-2,4-pyrimidinediamine] | 99600 nM
Cc1cnc(Nc2ccc3c(c2)ncn3CCO)nc1Nc1ccc(CNS(=O)(=O)C2CC2)cc1 [IV-8, N4-(4-cyclopropylsulfonylaminomethyl)phenyl-N2-[1-(2-hydroxyethyl)benzoimidazol-5-yl]-5-methyl-2,4-pyrimidinediamine] | 257 nM

Test system: BaF3 V617F cells; UKE-1
Test: Proliferation Assay (Cell Titer-Glo; Example 7)
Assay type: cell-based
Conditions: proliferation 72 hours, inhibit JAK2 activity, cell line (BaF3 V617F or UKE-1) not stated
In short: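 BaF3 V617F cells (RPMI, 10% FBS) and UKE-1 cells (Iscove's DMEM, 10% FBS, 10% equine serum, 1 uM hydrocortisone) were exposed to 3-fold serially diluted compound in duplicate for 72 hours at 37 °C. Viable cell number quantified by Cell Titer-Glo luminescence; IC50 reported.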

SMILES | IC50
Cc1cnc(Nc2cncc(C)c2N2CCN(C)CC2)nc1Nc1ccc(CNS(=O)(=O)C2CC2)cc1 [II-224, 5-Methyl-N4-[4-(N-cyclopropylsulfonylamino)methylphenyl]-N2-[5-methyl-4-(N-methylpiperizin-4-yl)pyridin-3-yl]-2,4-pyrimidinediamine] | 848 nM
CN1CCN(c2ccc(Nc3ncc(Cl)c(Nc4ccc(CCNS(=O)(=O)C5CC5)cc4)n3)cc2)CC1 [II-51, 5-Chloro-N4[4-(N-cyclopropylsulfonylamino)ethylphenyl]-N2-[4-(4-methylpiperazino)phenyl]-2,4-pyrimidinediamine] | 1070 nM
CN1CCC(c2ccc(Nc3ncc(Cl)c(Nc4ccc(CNS(=O)(=O)N(C)C)cc4)n3)cc2)CC1 [II-98, 5-Chloro-N4-[(4-(dimethylamino)sulfonylamino)methylphenyl]-N2-[4-(1-methyl-4-piperidinyl)pheny]-2,4-pyrimidinediamine] | 264 nM
CCCN1CCN(c2ccc(Nc3ncc(C)c(Nc4ccc(CCNS(=O)(=O)C5CC5)cc4)n3)c(C(F)(F)F)c2)CC1 [II-71] | 1400 nM
Cc1cnc(Nc2ccc(N3CCN(C)CC3)cc2)nc1Nc1ccc(CCNS(=O)(=O)C2CC2)cc1 [II-67] | 717 nM
CN1CCN(c2ccc(Nc3ncc(Cl)c(Nc4ccc(CNS(=O)(=O)N(C)C)cc4)n3)cc2)CC1 [II-96, 5-Chloro-N4-[(4-(dimethylamino)sulfonylamino)methylphenyl]-N2-[4-(4-methyl-1-piperazinyl)phenyl]-2,4-pyrimidinediamine] | 91 nM
Cc1cc(CNS(=O)(=O)C2CC2)ccc1Nc1nc(NC2=CC(C)C(C)(OCCN3CCOCC3)C=C2)ncc1C (centres unmarked) [II-161, N2-[3,4-Dimethyl-4-(2-(4-morpholinyl)ethoxy)phenyl]-5-methyl-N4-[2-methyl-4-(N-cyclopropylsulfonylamino)methylphenyl]-2,4-pyrimidinediamine] | 149 nM
Cc1nc2cc(Nc3ncc(Cl)c(Nc4cccc(CNS(=O)(=O)C5CC5)c4)n3)ccc2[nH]1 [III-7, 5-Chloro-N4-[3-(N-cyclopropylsulfonylaminomethyl)phenyl]-N2-[2-methylbenzamidazol-5-yl]-2,4-pyrimidinediamine] | 644 nM
Cc1cc(Nc2ncc(Cl)c(Nc3cccc(S(=O)(=O)NC(C)(C)C)c3)n2)ccc1N1C[C@@H]2C[C@H]1CN2C [I-22, 5-Chloro-N4-[(3-(1,1-dimethylethylamino)sulfonyl)phenyl]-N2-[3-methyl-4-[(1S,4S)-5-methyl-2,5-diazabicyclo[2.2.1]hept-2-yl]phenyl]-2,4-pyrimidinediamine] | 549 nM
